Source: US20170290774A1, “NEUROKININ-1 RECEPTOR ANTAGONIST COMPOSITION FOR TREATMENT OF DISEASES AND CONDITIONS OF THE RESPIRATORY TRACT” (PLUS VITECH, S.L., priority 2014, published 2017)

Columns and labels:
Type in all cases: in vivo, New Zealand albino rabbits
VEGF = experiment: Immunohistochemistry of VEGF in respiratory tract tissue of sodium hypochlorite aerosol-treated rabbits
From the text: (§1) It is known that the factors TGF-α, TGF-β 1, TGF-β 2, TGF-β 3, SPARC, MMP-3; MMP-7, MMP-9, MMP-11, MMP-13 and MMP-14, TGF-β, NF-kB, EGF, MMP-9, VEGF and TNF-α which are produced by lung cells (pneumocytes, fibroblasts and vascular endothelial cells) and inflammatory cells (macrophages, lymphocytes and polymorphonuclear leukocytes) are involved in the pathophysiology and development of said respiratory tract diseases. […] Herein, 27 New Zealand albino rabbits (New Zealand White Rabbit) with an initial average weight about 3 kg were used in this example. All subjects were administered an aerosol of a solution consisting of a mixture of water and sodium hypochlorite (35 g sodium hypochlorite per liter of water) at a rate of 5 mL of said solution by inhalation three times a day for 7 days (days 1 to 7 of experimentation). Subsequently, from days 3 to 7, a group of 3 rabbits (Group 1) was administered an oral dose of 10 mg/kg body weight per day, another group of 3 rabbits (Group 2) was administered an oral dose of 40 mg/kg body weight per day, a third group (Group 3) was administered an oral dose of 80 mg/kg body weight per day and a fourth group (Group 4) was administered an oral dose of 100 mg/kg body weight per day. […] This mixture was administered as an aerosol by inhalation, also from days 3 to 7, to a group of 3 rabbits (group 5) at a dose of 0.05 mg/kg body weight per day, to another group of three rabbits (Group 6) at a dose of 0.1 mg/kg body weight per day, to another group of three rabbits (Group 7) at a dose of 0.2 mg/kg body weight per day and to another group of three rabbits (Group 8) at a dose of 0.4 mg/kg body weight per day. A placebo consisting only of olive oil was administered from days 3 to 7 to a control group of 3 rabbits (placebo group). In parallel, 3 rabbits were kept under identical conditions but were not administered any treatment nor the aforementioned sodium hypochlorite solution (control group). […] On day 7 of the experiment all animals were euthanized and necropsied. […] Samples were taken at the peripheral level of the lung parenchyma, just below the pleural surface. Tissue samples were also taken from the nasal cavity, pharynx, larynx and bronchi. Immunohistochemistry studies were performed for all samples to evaluate the levels of the markers TGF-α, TGF-β 1, TGF-β 2, TGF-β 3 SPARC, MMP-3; MMP-7, MMP-9, MMP-11, MMP-14, TGF-β, TNF-α and VEGF. In said immunohistochemistry studies, a sample of each sample was dehydrated by treatment with increasing concentrations of ethanol and finally xylene. Subsequently said dried samples were embedded in paraffin, thus creating a block. Said paraffin blocks were cut on a microtome to a thickness of 5 μm, and the resulting sections (slices) were placed on slides suitable for conducting immunohistochemistry techniques. Subsequently, the sections were deparaffinised by immersion in xylene and then rehydrated through immersion in a series of solutions containing decreasing concentrations of ethanol and, finally, water. […] The samples were then allowed to cool to room temperature over 10 minutes. Endogenous peroxidase activity was blocked by treatment with 3% hydrogen peroxide over 30 min at room temperature. […] In order to verify the expression of NK1 receptors, the cell samples were incubated in the presence of anti-NK1 antibodies ([…], Sigma-Aldrich) diluted 1:1000 at 4° C. overnight. After this time they were washed in 0.05M Tris buffer at room temperature. Subsequently, Envision System-HRP (Dako) reagents were added for 30 min at room temperature. Once this time had expired, the samples were again washed with 0.05 M Tris buffer, and immunoreactivity was visualized by light microscopy with a chromogenic solution with 3,3'-diaminobenzidine (DAB+; Dako, USA). In order to differentiate the cell nuclei, these were lightly stained with haematoxylin. Samples that were not incubated with the primary antibody, but wherein this was replaced by a non-immune serum were used as negative controls. […]

TGFα = experiment: Immunohistochemistry of TGFα in respiratory tract tissue of sodium hypochlorite aerosol-treated rabbits
From the text: as §1

[1] = Tissue concentration of aprepitant by HPLC after oral or inhaled administration to rabbits; settings: oral, 10 to 100 mg/kg per day
[2] = bronchial tissue, Group 1, oral 10 mg/kg per day
[3] = bronchial tissue, Group 2, oral 40 mg/kg per day
[4] = bronchial tissue, Group 3, oral 80 mg/kg per day
[5] = bronchial tissue, Group 4, oral 100 mg/kg per day
[6] = laryngeal tissue, Group 1, oral 10 mg/kg per day
[7] = laryngeal tissue, Group 2, oral 40 mg/kg per day
[8] = laryngeal tissue, Group 3, oral 80 mg/kg per day
[9] = laryngeal tissue, Group 4, oral 100 mg/kg per day
[10] = laryngeal tissue, Group 5, inhalation 0.05 mg/kg per day
[11] = laryngeal tissue, Group 6, inhalation 0.1 mg/kg per day
[12] = laryngeal tissue, Group 7, inhalation 0.2 mg/kg per day
[13] = laryngeal tissue, Group 8, inhalation 0.4 mg/kg per day
[14] = lung tissue, Group 1, oral 10 mg/kg per day
[15] = lung tissue, Group 2, oral 40 mg/kg per day
[16] = lung tissue, Group 3, oral 80 mg/kg per day
[17] = lung tissue, Group 4, oral 100 mg/kg per day
[18] = lung tissue, Group 6, inhalation 0.1 mg/kg per day
[19] = lung tissue, Group 7, inhalation 0.2 mg/kg per day
[20] = lung tissue, Group 8, inhalation 0.4 mg/kg per day
[21] = nasal cavity tissue, Group 1, oral 10 mg/kg per day
[22] = nasal cavity tissue, Group 2, oral 40 mg/kg per day
[23] = nasal cavity tissue, Group 3, oral 80 mg/kg per day
[24] = nasal cavity tissue, Group 4, oral 100 mg/kg per day
[25] = nasal cavity tissue, Group 5, inhalation 0.05 mg/kg per day
[26] = nasal cavity tissue, Group 6, inhalation 0.1 mg/kg per day
[27] = nasal cavity tissue, Group 7, inhalation 0.2 mg/kg per day
[28] = nasal cavity tissue, Group 8, inhalation 0.4 mg/kg per day
[29] = pharyngeal tissue, Group 1, oral 10 mg/kg per day
[30] = pharyngeal tissue, Group 2, oral 40 mg/kg per day
[31] = pharyngeal tissue, Group 3, oral 80 mg/kg per day
[32] = pharyngeal tissue, Group 4, oral 100 mg/kg per day
[33] = pharyngeal tissue, Group 5, inhalation 0.05 mg/kg per day
[34] = pharyngeal tissue, Group 6, inhalation 0.1 mg/kg per day
[35] = pharyngeal tissue, Group 7, inhalation 0.2 mg/kg per day
[36] = pharyngeal tissue, Group 8, inhalation 0.4 mg/kg per day

relationship between dose and concentration in lung tissue [1]: non-linear and not proportional
Structure (SMILES): C[C@@H](OC1OCCN(Cc2nc(=O)[nH][nH]2)C1c1ccc(F)cc1)c1cc(C(F)(F)F)cc(C(F)(F)F)c1 (stereo in doubt) [Aprepitant, 5-([(2R,3S)-2-((R)-1-[3,5-bis(trifluoromethyl)phenyl]ethoxy)-3-(4-fluorophenyl)morpholino]methyl)-1H-1,2,4-triazol-3(2H)-one]
Percent increase in VEGF with respect to the control group (VEGF; [2]): 457.34% | Percent increase in VEGF with respect to the control group (VEGF; [3]): 356.45% | Percent increase in VEGF with respect to the control group (VEGF; [4]): 256.34% | Percent increase in VEGF with respect to the control group (VEGF; [5]): 203.56% | % Med G5/C: percent increase in marker VEGF with respect to the control group (VEGF; bronchial tissue, Group 5): 324.53% | % Med G6/C: percent increase in marker VEGF with respect to the control group (VEGF; bronchial tissue, Group 6): 235.71% | % Med G7/C: percent increase in marker VEGF with respect to the control group (VEGF; bronchial tissue, Group 7): 153.57% | % Med G8/C: percent increase in marker VEGF with respect to the control group (VEGF; bronchial tissue, Group 8): 112.71% | Percent increase in VEGF with respect to the control group (VEGF; [6]): 1,134.34% | Percent increase in VEGF with respect to the control group (VEGF; [7]): 980.54% | Percent increase in VEGF with respect to the control group (VEGF; [8]): 875.80% | Percent increase in VEGF with respect to the control group (VEGF; [9]): 667.82% | Percent increase in VEGF with respect to the control group (VEGF; [10]): 950.34% | Percent increase in VEGF with respect to the control group (VEGF; [11]): 670.32% | Percent increase in VEGF with respect to the control group (VEGF; [12]): 570.12% | Percent increase in VEGF with respect to the control group (VEGF; [13]): 250.21% | Percent increase in VEGF with respect to the control group (VEGF; [14]): 655.77% | Percent increase in VEGF with respect to the control group (VEGF; [15]): 512.28% | Percent increase in VEGF with respect to the control group (VEGF; [16]): 458.30% | Percent increase in VEGF with respect to the control group (VEGF; [17]): 342.93% | Percent increase in VEGF with respect to the control group (VEGF; lung tissue, Group 5, inhalation 0.05 mg/kg per day): 575.62% | Percent increase in VEGF with respect to the control group (VEGF; [18]): 391.91% | Percent increase in VEGF with respect to the control group (VEGF; [19]): 200.18% | Percent increase in VEGF with respect to the control group (VEGF; [20]): 145.64% | Percent increase in VEGF with respect to the control group (VEGF; [21]): 1,293.11% | Percent increase in VEGF with respect to the control group (VEGF; [22]): 969.58% | Percent increase in VEGF with respect to the control group (VEGF; [23]): 716.62% | Percent increase in VEGF with respect to the control group (VEGF; [24]): 576.80% | Percent increase in VEGF with respect to the control group (VEGF; [25]): 1,727.98% | Percent increase in VEGF with respect to the control group (VEGF; [26]): 1,010.56% | Percent increase in VEGF with respect to the control group (VEGF; [27]): 323.15% | Percent increase in VEGF with respect to the control group (VEGF; [28]): 145.68% | Percent increase in VEGF with respect to the control group (VEGF; [29]): 1,789.12% | Percent increase in VEGF with respect to the control group (VEGF; [30]): 1,256.67% | Percent increase in VEGF with respect to the control group (VEGF; [31]): 998.56% | Percent increase in VEGF with respect to the control group (VEGF; [32]): 567.45% | Percent increase in VEGF with respect to the control group (VEGF; [33]): 1,858.37% | Percent increase in VEGF with respect to the control group (VEGF; [34]): 1,198.56% | Percent increase in VEGF with respect to the control group (VEGF; [35]): 654.32% | Percent increase in VEGF with respect to the control group (VEGF; [36]): 121.34% | Percent increase in TGFα with respect to the control group (TGFα; [2]): 1,980.45% | Percent increase in TGFα with respect to the control group (TGFα; [3]): 1,540.45% | Percent increase in TGFα with respect to the control group (TGFα; [4]): 1,190.45% | Percent increase in TGFα with respect to the control group (TGFα; [5]): 873.34% | % Med G5/C: percent increase in marker TGFα with respect to the control group (TGFα; bronchial tissue, Group 5): 1,875.75% | % Med G6/C: percent increase in marker TGFα with respect to the control group (TGFα; bronchial tissue, Group 6): 1,267.45% | % Med G7/C: percent increase in marker TGFα with respect to the control group (TGFα; bronchial tissue, Group 7): 689.78% | % Med G8/C: percent increase in marker TGFα with respect to the control group (TGFα; bronchial tissue, Group 8): 209.45% | Percent increase in TGFα with respect to the control group (TGFα; [6]): 1,875.56% | Percent increase in TGFα with respect to the control group (TGFα; [7]): 1,500.45% | Percent increase in TGFα with respect to the control group (TGFα; [8]): 1,320.32% | Percent increase in TGFα with respect to the control group (TGFα; [9]): 1,101.28% | Percent increase in TGFα with respect to the control group (TGFα; [10]): 1,820.45% | Percent increase in TGFα with respect to the control group (TGFα; [11]): 1,250.74% | Percent increase in TGFα with respect to the control group (TGFα; [12]): 783.78% | Percent increase in TGFα with respect to the control group (TGFα; [13]): 234.67% | Percent increase in TGFα with respect to the control group (TGFα; [14]): 1,717.76% | Percent increase in TGFα with respect to the control group (TGFα; [15]): 1,308.73% | Percent increase in TGFα with respect to the control group (TGFα; [16]): 1,257.29% | Percent increase in TGFα with respect to the control group (TGFα; [17]): 1,195.15% | Percent increase in TGFα with respect to the control group (TGFα; [18]): 937.00% | Percent increase in TGFα with respect to the control group (TGFα; [19]): 402.39% | Percent increase in TGFα with respect to the control group (TGFα; [20]): 147.11% | Percent increase in TGFα with respect to the control group (TGFα; [21]): 2,824.89% | Percent increase in TGFα with respect to the control group (TGFα; [22]): 1,907.98% | Percent increase in TGFα with respect to the control group (TGFα; [23]): 1,347.22% | Percent increase in TGFα with respect to the control group (TGFα; [24]): 952.16% | Percent increase in TGFα with respect to the control group (TGFα; [25]): 2,908.21% | Percent increase in TGFα with respect to the control group (TGFα; [26]): 764.46% | Percent increase in TGFα with respect to the control group (TGFα; [27]): 495.68% | Percent increase in TGFα with respect to the control group (TGFα; [28]): 156.67% | Percent increase in TGFα with respect to the control group (TGFα; [29]): 2,274.76% | Percent increase in TGFα with respect to the control group (TGFα; [30]): 1,907.77% | Percent increase in TGFα with respect to the control group (TGFα; [31]): 1,780.45% | Percent increase in TGFα with respect to the control group (TGFα; [32]): 1,550.34% | Percent increase in TGFα with respect to the control group (TGFα; [33]): 1,946.43% | Percent increase in TGFα with respect to the control group (TGFα; [34]): 1,364.46% | Percent increase in TGFα with respect to the control group (TGFα; [35]): 699.78% | Percent increase in TGFα with respect to the control group (TGFα; [36]): 101.34%
